Values quoted from earlier work as cited in US20020048551A1, “Delivery of biologically active material in a liposomal formulation for administration into the mouth” (priority 1999, published 2002).

Conditions: tablet absorbed through the buccal mucosa

C[C@]12CCC(=O)C=C1CC[C@@H]1[C@@H]2CC[C@@]2(C)[C@H]1CC[C@]2(C)O [methyltestosterone]
androgenic activity relative to oral tablets: twice
